According to article PMC10517971, “An inverse agonist of orphan receptor GPR61 acts by a G protein-competitive allosteric mechanism” (Nature Communications, 2023):
Read-outs that look alike come from different tables or passages of the source.

Legend:
Human PDE11A4 = Human PDE11A4 (Homo sapiens, UniProt Q9HCR9); assay: Phosphodiesterase Assay (SPA); format: biochemical
[1] = target: T1, human GABAA receptor (α1β2γ2) (Homo sapiens, UniProt P14867+P18507+P47870); assay: GABA Patch Clamp Assay (agonist, antagonist, PAM modes); format: cell-based
T1 construct: expressed in transfected cells
T1 sequence (P14867 28-456): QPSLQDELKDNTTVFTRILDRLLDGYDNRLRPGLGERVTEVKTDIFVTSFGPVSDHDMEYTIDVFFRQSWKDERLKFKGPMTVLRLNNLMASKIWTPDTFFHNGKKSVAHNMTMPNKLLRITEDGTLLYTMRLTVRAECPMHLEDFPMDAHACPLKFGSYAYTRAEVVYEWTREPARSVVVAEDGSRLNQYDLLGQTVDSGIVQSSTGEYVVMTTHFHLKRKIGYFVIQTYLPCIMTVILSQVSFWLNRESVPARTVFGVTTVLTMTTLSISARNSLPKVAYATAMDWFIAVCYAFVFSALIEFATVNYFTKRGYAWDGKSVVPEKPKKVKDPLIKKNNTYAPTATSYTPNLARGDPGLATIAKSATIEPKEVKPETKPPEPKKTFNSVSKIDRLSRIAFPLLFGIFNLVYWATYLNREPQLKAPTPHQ
T1 sequence (P47870 25-512 limits assumed): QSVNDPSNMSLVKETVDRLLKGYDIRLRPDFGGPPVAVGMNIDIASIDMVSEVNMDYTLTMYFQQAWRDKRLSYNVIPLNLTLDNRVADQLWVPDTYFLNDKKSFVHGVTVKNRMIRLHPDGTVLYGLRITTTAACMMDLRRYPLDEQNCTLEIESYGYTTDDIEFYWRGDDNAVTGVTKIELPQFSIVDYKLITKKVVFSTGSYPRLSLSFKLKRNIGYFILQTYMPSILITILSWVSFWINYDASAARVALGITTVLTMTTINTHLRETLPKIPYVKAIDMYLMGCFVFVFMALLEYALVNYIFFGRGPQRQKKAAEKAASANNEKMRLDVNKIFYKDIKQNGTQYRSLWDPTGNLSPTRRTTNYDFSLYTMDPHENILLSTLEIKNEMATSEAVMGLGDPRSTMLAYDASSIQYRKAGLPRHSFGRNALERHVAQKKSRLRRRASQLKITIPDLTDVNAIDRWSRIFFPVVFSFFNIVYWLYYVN
T1 sequence (P18507 40-475): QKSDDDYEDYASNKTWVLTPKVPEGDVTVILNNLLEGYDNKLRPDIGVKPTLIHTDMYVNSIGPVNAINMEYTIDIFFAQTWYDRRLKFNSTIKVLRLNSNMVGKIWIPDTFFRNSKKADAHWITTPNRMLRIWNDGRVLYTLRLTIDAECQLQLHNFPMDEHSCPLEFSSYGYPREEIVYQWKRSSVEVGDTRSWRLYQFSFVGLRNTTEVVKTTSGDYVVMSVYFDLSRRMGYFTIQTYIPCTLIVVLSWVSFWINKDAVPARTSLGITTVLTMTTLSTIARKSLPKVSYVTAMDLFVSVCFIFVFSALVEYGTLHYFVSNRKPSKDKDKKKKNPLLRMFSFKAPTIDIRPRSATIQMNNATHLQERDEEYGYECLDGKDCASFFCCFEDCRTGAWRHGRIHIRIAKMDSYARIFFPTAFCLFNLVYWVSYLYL
From the text: 151 GABA Patch Clamp Assay
152 Compound effects on the human GABAA recepto r (α1β2γ2), stably express ed in human embryonic
153 kidney (HEK) cells, were examined in three modes of action: agonist, antagonist and positive
154 allosteric modulation (PAM) modes. Chloride currents evoked by the activation of the GABAA
155 recepto r wer e reco rded in the whole- cell patch clamp configuration with the automated Qube384®
156 platform (Sophion Bioscience A/S, Baltorpvej, Denmark). The intracellular solution contained (in
157 mM): CsF 90, CsCl 50, MgCl2 2 EGTA 10, HEPES 10, pH adjusted to 7.2 with CsOH. The
158 extracellular solution contained (in mM): NaCl 138, KCl 5.3, CaCl2 5, MgCl2 0.49, HEPES 10,
160 osmolarity of the internal and external solutions were adjusted with sucrose to 300 mOsm and 305
162 Compounds were dissolved and initially diluted in dimethyl sulfoxide (DMSO), with a final
163 dilution in external sol ution to generate final working concent rations. The final DMSO
164 concentration in all experiments was 0.33% (v/v).
165 Cells and solutions were loaded into the Qube384 10X Qchip (10 recording wells per well, 384
166 wells per QChip). After whole-cell con figuration was achiev ed by negativ e pressure pulse, cells
167 were maintained at a holding potential of - 80 mV throughout the experiment. To avoid
168 desensitization and current rundown due to persistent activation of GABAA, a “stacked pipette”
169 approach was utilized to ensure only a brief exposure of the cells to GABA-containing solutions.
170 In this approach, the perfusion pipettes drew from two liquid sources, first from extracellular
171 solution (14 µL), and next from a GABA-containing solution (7 µL). When dispensed into the
173 extracellular solution. At the start of the experiment, a baseline GABAA cu rrent was established
174 for each well in response to activation by 40 µM GABA. Each subsequent test condition was
175 normalized ag ainst this baseline GABA cu rrent on a per w ell basis.
176 Agonist effects were measured by recording the current evoked by the test article in the absen ce
177 of GABA. Agonism (%) was calculated relative to the current produced by 40 µM GABA for
178 each well: [% Agonism = (Itest article / I 40µM GABA) * 100%].
179 Antagonist effects of test article were examined i n the presence of 40 µM GABA following a 4
180 min incubation in test article. Antagonism was calculated relative to the current produced by 40 […]
182 allosteric modulation (%) by test article was detected when current was enhanced relative to the […]
184 EC50/ IC 50 values were calculated by fitting concentration response curve data to a 4- p aram eter […]
190 determined using a four-parameter logistic fit. […]
193 response. An apparent KB value for antagonist activity was calculated using the following […]

[2] = target: T2, HiBit-tagged wild-type GPR61 (Homo sapiens, UniProt Q9BZJ8); assay: Receptor expression studies (HiBit surface and total expression), CHO-K1 cells; format: cell-based; conditions: effect of compound, Fig. 2b, c
T2 construct: expressed in transfected cells; host or cells: CHO-K1, transient (Fugene6)
T2 sequence (Q9BZJ8 whole entry): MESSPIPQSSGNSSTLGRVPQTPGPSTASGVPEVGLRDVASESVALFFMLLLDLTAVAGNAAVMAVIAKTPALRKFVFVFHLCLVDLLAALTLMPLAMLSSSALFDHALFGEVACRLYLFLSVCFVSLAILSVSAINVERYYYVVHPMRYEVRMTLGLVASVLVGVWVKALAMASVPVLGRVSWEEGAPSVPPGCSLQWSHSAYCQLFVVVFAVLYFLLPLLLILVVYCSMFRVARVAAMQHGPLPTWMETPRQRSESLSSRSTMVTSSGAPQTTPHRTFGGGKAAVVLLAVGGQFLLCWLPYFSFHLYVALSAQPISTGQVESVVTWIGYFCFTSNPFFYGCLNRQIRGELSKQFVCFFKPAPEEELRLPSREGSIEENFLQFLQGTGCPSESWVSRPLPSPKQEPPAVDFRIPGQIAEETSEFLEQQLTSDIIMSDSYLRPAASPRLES
From the text: The human GPR61 (reference sequence NM_031936.4) cDNA was synthesized and subcloned into pcDNA5/FRT/TO (Thermo Fisher, Pittsburgh, PA). The pcDNA5/FRT/TO/ human GPR61 plasmid was then transfected into the Flp-In™-CHO Cell Line (Thermo Fisher, Pittsburgh, PA) and a doxycycline-inducible clonal cell line was selected (CHO TREx hGPR61 WT). Sequences encoding untagged and HiBit/hemagglutinin (HA)-tagged versions of the wild-type human GPR61 were synthesized and cloned into pcDNA3.1. The HiBit ([…]) and HA ([…]) tags were sequentially included after the N-terminal initiator methionine. […]
Parental CHO-K1 cells were maintained at 37 °C in a humidified environment (5% CO2) and grown in Dulbecco’s Modified Eagle Medium (DMEM) F-12 media (Gibco, 11320033) supplemented with 10% FBS, 1% Glutamax (Gibco, 35050061) and 100units/ml penicillin and streptomycin (Gibco, 15140122. Cells were dissociated using a cell dissociation solution (Gibco, 13151-014), counted, and resuspended in complete culture media without antibiotics. Cells were then transiently transfected using Fugene6 (Promega) in a 384-well plate format (Corning, 3570). For each well, 7500 cells were transfected with 5 ng of receptor plasmid, 20 ng of carrier DNA (Promega, PAE4881) and 0.075 μl Fugene6 in a final volume of 25 μl. […]

Human PDE7B = Human PDE7B (Homo sapiens, UniProt Q9NP56); assay: Phosphodiesterase Assay (SPA); format: biochemical
Chain of Human PDE7B (Q9NP56 whole entry): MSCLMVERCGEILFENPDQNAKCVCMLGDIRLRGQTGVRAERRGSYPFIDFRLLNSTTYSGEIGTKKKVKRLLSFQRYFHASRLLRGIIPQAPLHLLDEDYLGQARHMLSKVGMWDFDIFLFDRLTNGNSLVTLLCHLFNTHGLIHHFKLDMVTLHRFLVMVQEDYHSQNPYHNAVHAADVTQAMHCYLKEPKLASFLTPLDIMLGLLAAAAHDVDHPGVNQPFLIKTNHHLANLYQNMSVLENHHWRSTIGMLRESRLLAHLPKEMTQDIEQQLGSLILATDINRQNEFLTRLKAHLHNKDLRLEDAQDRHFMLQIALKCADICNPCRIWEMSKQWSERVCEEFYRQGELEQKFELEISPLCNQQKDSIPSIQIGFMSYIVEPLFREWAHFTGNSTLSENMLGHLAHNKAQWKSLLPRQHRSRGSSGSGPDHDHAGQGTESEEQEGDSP

Chain of Human PDE11A4 (Q9HCR9 whole entry): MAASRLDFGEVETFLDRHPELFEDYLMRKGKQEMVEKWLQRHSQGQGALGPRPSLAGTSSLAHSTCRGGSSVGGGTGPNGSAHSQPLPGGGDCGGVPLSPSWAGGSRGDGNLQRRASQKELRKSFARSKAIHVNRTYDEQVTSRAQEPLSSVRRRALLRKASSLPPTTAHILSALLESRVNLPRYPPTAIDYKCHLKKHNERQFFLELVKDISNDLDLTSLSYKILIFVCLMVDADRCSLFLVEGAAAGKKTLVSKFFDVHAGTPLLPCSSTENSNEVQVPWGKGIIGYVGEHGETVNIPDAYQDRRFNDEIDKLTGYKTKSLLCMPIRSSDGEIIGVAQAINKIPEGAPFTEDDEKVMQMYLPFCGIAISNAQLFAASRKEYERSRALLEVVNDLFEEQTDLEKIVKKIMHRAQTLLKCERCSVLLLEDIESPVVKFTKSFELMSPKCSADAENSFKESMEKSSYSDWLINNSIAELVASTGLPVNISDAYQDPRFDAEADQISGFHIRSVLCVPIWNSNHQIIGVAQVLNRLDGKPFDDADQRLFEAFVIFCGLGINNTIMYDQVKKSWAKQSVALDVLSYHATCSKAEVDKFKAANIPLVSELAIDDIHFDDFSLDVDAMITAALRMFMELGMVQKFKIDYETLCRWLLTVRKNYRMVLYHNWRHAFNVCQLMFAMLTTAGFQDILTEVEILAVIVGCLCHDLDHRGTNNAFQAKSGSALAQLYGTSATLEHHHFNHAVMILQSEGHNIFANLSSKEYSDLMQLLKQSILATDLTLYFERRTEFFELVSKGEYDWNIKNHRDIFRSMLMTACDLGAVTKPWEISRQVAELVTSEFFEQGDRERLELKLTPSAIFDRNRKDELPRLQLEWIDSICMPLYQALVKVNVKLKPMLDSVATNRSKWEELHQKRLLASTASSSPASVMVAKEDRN

Q: With `CCOc1cc(C)nc(N(CCOC)S(=O)(=O)c2ccc(NCc3c(F)cncc3F)nc2OC)n1` [Compound 1] as the molecule, how does the IC50 (Human PDE11A4) read?
A: Its IC50 is greater than 40 µM.

Q: What about the EC50 [1] of the same molecule?
A: The EC50 was greater than 100 µM.

Q: What about the “%Activation@10μM” value ([1]; GABAa, 10μM) of the same molecule?
A: The value was 0%.

Q: And the inhibition at 10 µM ([1]; GABAa, 10μM)?
A: Its inhibition at 10 µM is 4%.

Q: What about the EC50 ([1]; read-out: PAM EC50, GABAa, positive allosteric modulation mode) of the same molecule?
A: Its EC50 is greater than 100 µM.

Q: What about the “cell surface expression of HiBit-tagged wild-type GPR61” value [2] of the same molecule?
A: The value was “increased”.

Q: What about the IC50 (Human PDE7B) of the same molecule?
A: The IC50 was 6.27 µM.
